Results as given in DBAASP.
Values after ≈ are worked out from the molar mass of the structure shown. Values joined by “and” are separate entries in the source; they are usually repeats but may differ in a detail not shown here. Identical values can stand only once. One block for each molecule: values may come before it.

How the values were obtained:
Assay in all cases: ≥ marks a high value that may be exact or a test limit, other limits are often not marked, values filed in µg/mL are converted to µM
[1] = test system: Escherichia coli O157:H7 ATCC 43895
[2] = test system: Pseudomonas aeruginosa ATCC 27853
[3] = test system: Candida albicans ATCC 90028
[4] = test system: Pseudomonas aeruginosa
[5] = test system: Malassezia furfur KCTC 7744
[6] = test system: Staphylococcus aureus ATCC 25923
[7] = test system: Enterococcus faecium
[8] = test system: Escherichia coli
[9] = test system: Aspergillus flavus KCTC 1375
[10] = test system: Enterococcus faecium ATCC 19434
[11] = test system: Staphylococcus aureus
[12] = test system: Streptococcus pyogenes ATCC 19615
[13] = test system: Staphylococcus aureus ATCC 43300
[14] = test system: Staphylococcus haemolyticus
[15] = test system: Enterococcus faecalis ATCC 29212
[16] = test system: Escherichia coli W160-37
[17] = test system: Salmonella typhimurium
[18] = test system: Saccharomyces cerevisiae PEP 4/3l
[19] = test system: Staphylococcus aureus SAP 0017
[20] = test system: Staphylococcus epidermidis
[21] = test system: Staphylococcus aureus ATCC 8530
[22] = test system: Listeria monocytogenes NCTC 7973
[23] = test system: Escherichia coli ATCC 25922
[24] = test system: Escherichia coli DH5alpha
[25] = test system: Acinetobacter baumannii
[26] = test system: Klebsiella pneumoniae
[27] = test system: Corynebacterium xerosis
[28] = test system: Enterococcus faecalis
[29] = test system: Yersinia pseudotuberculosis YPIII
[30] = test system: Pseudomonas syringae pv. tabaci 1918NCPPB
[31] = test system: Pseudomonas aeruginosa ATCC 15692
[32] = test system: Staphylococcus capitis 1
[33] = test system: Escherichia coli D21
[34] = test system: Bacillus megaterium Bm11
[35] = test system: Staphylococcus aureus Cowan 1
[36] = test system: Streptococcus pyogenes ATCC 21547
[37] = test system: Candida albicans ATCC 10231
[38] = test system: Saccharomyces cerevisiae
[39] = test system: Acinetobacter baumannii ATCC 19606
[40] = test system: Schizosaccharomyces pombe
[41] = test system: Acinetobacter junii RT-4
[42] = test system: Staphylococcus epidermidis ATCC 12228
[43] = test system: Staphylococcus aureus 1
[44] = test system: Staphylococcus aureus 4
[45] = test system: Pseudomonas aeruginosa 5
[46] = test system: Pseudomonas aeruginosa 2
[47] = test system: Pseudomonas aeruginosa 1
[48] = test system: Escherichia coli O157

- MIC [1]: 20 µM (≈ 40.2 µg/mL)
- MIC [2]: 20 µM (≈ 40.2 µg/mL)
- MIC [3]: ≥ 40 µM
- MIC [4]: 28.3 µM (≈ 56.9 µg/mL)
- MIC [5]: ≥ 40 µM
- MIC [6]: 20 µM (≈ 40.2 µg/mL)
- MIC [7]: 28.3 µM (≈ 56.9 µg/mL)
- MIC [8]: 28.3 µM (≈ 56.9 µg/mL)
- MIC [9]: 28.3 µM (≈ 56.9 µg/mL)
- MIC [10]: 28.3 µM (≈ 56.9 µg/mL)
- MIC [11]: 14.1 µM (≈ 28.4 µg/mL)
Structure (SMILES): CC(C)[C@H](NC(=O)[C@H](Cc1cnc[nH]1)NC(=O)[C@H](C)NC(=O)[C@H](C)NC(=O)[C@H](CCCCN)NC(=O)[C@H](CCCCN)NC(=O)[C@H](Cc1ccccc1)NC(=O)[C@H](Cc1ccccc1)NC(=O)[C@H](CO)NC(=O)CNC(=O)[C@H](Cc1c[nH]c2ccccc12)NC(=O)CN)C(=O)NCC(=O)N[C@@H](CCCCN)C(=O)N[C@@H](Cc1cnc[nH]1)C(=O)N[C@H](C(=O)NCC(=O)N[C@@H](CCCCN)C(=O)N[C@@H](C)C(N)=O)C(C)C [GWGSFFKKAAHVGKHVGKA]

- MIC [12]: 0.547 µM (≈ 0.999 µg/mL)
- MIC [13]: 14.7 µM (≈ 26.9 µg/mL)
- MIC [15]: 4.37 µM (≈ 8 µg/mL)
- MIC [16]: 12.2 µM (≈ 22.3 µg/mL)
- MIC [4]: > 100 µM
- MIC [17]: ≥ 50 µM
- MIC [6]: 2.19 µM (≈ 4 µg/mL)
- MIC [18]: 6.7 µM (≈ 12.2 µg/mL)
- MIC [19]: 2.19 µM (≈ 4 µg/mL)
- MIC [20]: 1.09 µM (≈ 2 µg/mL)
- MIC [21]: 1.55 µM (≈ 2.83 µg/mL)
- MIC [22]: 0.547 µM (≈ 0.999 µg/mL)
- MIC [23]: 14.7 µM (≈ 26.9 µg/mL)
- MIC [24]: ≥ 45 µM
- MIC [25]: 5.6 µM (≈ 10.2 µg/mL)
- MIC [8]: 4.37 µM (≈ 8 µg/mL)
- MIC [26]: 50 µM (≈ 91.4 µg/mL)
- MIC [27]: 0.547 µM (≈ 0.999 µg/mL)
- MIC [28]: 2 µM (≈ 3.66 µg/mL)
Structure (SMILES): CC[C@H](C)[C@H](N)C(=O)N[C@@H](CC(C)C)C(=O)N[C@@H](C)C(=O)N[C@@H](Cc1c[nH]c2ccccc12)C(=O)N[C@@H](CCCCN)C(=O)N[C@@H](Cc1c[nH]c2ccccc12)C(=O)N[C@@H](C)C(=O)N[C@@H](Cc1c[nH]c2ccccc12)C(=O)N[C@@H](Cc1c[nH]c2ccccc12)C(=O)N[C@@H](C)C(=O)N[C@@H](Cc1c[nH]c2ccccc12)C(=O)N[C@@H](CCCN=C(N)N)C(=O)N[C@@H](CCCN=C(N)N)C(N)=O [ILAWKWAWWAWRR]
- MIC [14]: 1.09 µM and 0.547 µM

- MIC [29]: 3 µM (≈ 4.66 µg/mL)
- MIC [30]: 6 µM (≈ 9.31 µg/mL)
- MIC [31]: 12 µM (≈ 18.6 µg/mL)
- MIC [32]: 1.5 µM (≈ 2.33 µg/mL)
- MIC [2]: 24 µM (≈ 37.2 µg/mL)
- MIC [15]: 3 µM (≈ 4.66 µg/mL)
- MIC [33]: 12 µM (≈ 18.6 µg/mL)
- MIC [34]: 1.5 µM (≈ 2.33 µg/mL)
- MIC [6]: 3 µM (≈ 4.66 µg/mL)
- MIC [35]: 1.5 µM (≈ 2.33 µg/mL)
- MIC [36]: 6 µM (≈ 9.31 µg/mL)
- MIC [23]: 6 µM (≈ 9.31 µg/mL)
- MIC [37]: 6 µM (≈ 9.31 µg/mL)
- MIC [38]: 3 µM (≈ 4.66 µg/mL)
- MIC [39]: 12 µM (≈ 18.6 µg/mL)
- MIC [40]: 3 µM (≈ 4.66 µg/mL)
- MIC [41]: 24 µM (≈ 37.2 µg/mL)
- MIC [42]: 1.5 µM (≈ 2.33 µg/mL)
Structure (SMILES): CC(C)C[C@H](NC(=O)[C@H](CC(C)C)NC(=O)[C@H](CCCN=C(N)N)NC(=O)CNC(=O)[C@H](CC(C)C)NC(=O)[C@H](CC(C)C)NC(=O)[C@H](CCCCN)NC(=O)[C@H](CO)NC(=O)[C@H](CC(C)C)NC(=O)[C@H](Cc1c[nH]c2ccccc12)NC(=O)[C@H](CCC(N)=O)NC(=O)[C@H](CC(C)C)NC(=O)[C@@H](N)CC(C)C)C(N)=O [LLQWLSKLLGRLL]

- MIC [43]: 2.5 µM (≈ 3.13 µg/mL)
- MIC [4]: 10 µM (≈ 12.5 µg/mL)
- MIC [44]: 5 µM (≈ 6.26 µg/mL)
- MIC [45]: 2.5 µM (≈ 3.13 µg/mL)
- MIC [46]: 3.54 µM (≈ 4.43 µg/mL)
- MIC [7]: 5 µM (≈ 6.26 µg/mL)
- MIC [11]: 14.1 µM (≈ 17.7 µg/mL)
- MIC [47]: 5 µM (≈ 6.26 µg/mL)
- MIC [48]: 5 µM (≈ 6.26 µg/mL)
Structure (SMILES): CC[C@H](C)[C@H](NC(=O)[C@H](CC(C)C)NC(=O)[C@H](CCCN=C(N)N)NC(=O)[C@@H](NC(=O)[C@H](C)NC(=O)[C@H](CCCCN)NC(=O)[C@H](CCCN=C(N)N)NC(=O)[C@H](CC(C)C)NC(=O)[C@@H](N)CCCN=C(N)N)C(C)C)C(=O)N[C@@H](CCCCN)C(=O)O [RLRKAVRLIK]
